For 22 compounds, T/C results are on record in PubChem BioAssay AID330 (DTP/NCI, 2004).

The assay relates to P388 leukemia ip, CD2F1 mice, survival T/C. The experiment in a line: NCI In Vivo Anticancer Drug Screen. Data for tumor model P388 Leukemia (intraperitoneal) in CD2F1 (CDF1) mice. Particulars: endpoint: median survival time, higher = longer survival. In short, it runs like this: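 Mice carrying the transplanted tumor received test compound or vehicle. Survival was recorded in each group, and the value is the treated-group measurement divided by that of the vehicle-treated control group.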

Setting [1] is: dose: 50.0 mg/kg/injection, schedule: Q01DX009 (ip), vehicle: saline with Tween-80.
The mark [2] stands for this setting: dose: 50.0 mg/kg/injection, schedule: Q01DX005 (ip), vehicle: Klucel (hydroxypropylcellulose) (HPC).
Where [3] appears, read: dose: 100.0 mg/kg/injection, schedule: Q01DX005 (ip), vehicle: Klucel (hydroxypropylcellulose) (HPC).
Setting [4] is: dose: 200.0 mg/kg/injection, schedule: Q01DX005 (ip), vehicle: Klucel (hydroxypropylcellulose) (HPC).
Setting [5] is: dose: 60.0 mg/kg/injection, schedule: Q01DX005 (ip), vehicle: Klucel (hydroxypropylcellulose) (HPC).
Where [6] appears, read: dose: 50.0 mg/kg/injection, schedule: Q01DX009 (ip), vehicle: Klucel (hydroxypropylcellulose) (HPC).
[7] abbreviates: dose: 100.0 mg/kg/injection, schedule: Q01DX009 (ip), vehicle: Klucel (hydroxypropylcellulose) (HPC).
Setting [8] is: dose: 200.0 mg/kg/injection, schedule: Q01DX009 (ip), vehicle: Klucel (hydroxypropylcellulose) (HPC).

The structures appear in SMILES notation. Values joined by “and” are separate entries in the source; they are usually repeats but may differ in a detail not shown here. Equal values may be shown once. Toxic doses and inconclusive results are not listed.

As to `C[C@@H]1CC[C@]2(C)CC[C@]3(C)C(=CC[C@@H]4[C@@]5(C)CC[C@@H](OC(=O)c6ccc(O)cc6)C(C)(C)[C@@H]5C[C@H](O)[C@]43C)[C@@H]2[C@H]1C(=O)O`, the T/C is 159 % of control (dose: 0.2 mg/kg/injection, schedule: Q01DX009 (ip), vehicle: saline with Tween-80); 117 % of control (dose: 12.5 micrograms/kg/injection, schedule: Q01DX009 (ip), vehicle: saline with Tween-80); 117 % of control (dose: 25.0 micrograms/kg/injection, schedule: Q01DX009 (ip), vehicle: saline with Tween-80); 118 % of control (dose: 50.0 micrograms/kg/injection, schedule: Q01DX009 (ip), vehicle: saline with Tween-80); 163 % of control (dose: 400.0 micrograms/kg/injection, schedule: Q01DX009 (ip), vehicle: saline with Tween-80).

As for `C=Cn1ccnc1C(O)(c1ccc(Cl)cc1)c1ccc(Cl)cc1`, the T/C under setting [1] is 92 % of control and 94 % of control; the T/C (dose: 100.0 mg/kg/injection, schedule: Q01DX009 (ip), vehicle: saline with Tween-80) was 100 % of control and 94 % of control; the T/C (dose: 200.0 mg/kg/injection, schedule: Q01DX009 (ip), vehicle: saline with Tween-80) was 94 % of control; the T/C (dose: 400.0 mg/kg/injection, schedule: Q01DX009 (ip), vehicle: saline with Tween-80) is 95 % of control and 98 % of control.

For the compound `CSC(=S)N1CCN(C(=S)SC)C1=O`, the T/C by setting is: under setting [2], 108 % of control; under setting [3], 96 % of control; under setting [4], 91 % of control.

As to `Cc1ccc(N2C(=O)CSC2=S)cc1Br`, the T/C was 93 % of control (dose: 50.0 mg/kg/injection, schedule: Q01DX009 (ip), vehicle: suspension in saline); 105 % of control (dose: 100.0 mg/kg/injection, schedule: Q01DX009 (ip), vehicle: suspension in saline); 93 % of control (dose: 200.0 mg/kg/injection, schedule: Q01DX009 (ip), vehicle: suspension in saline).

For the compound `NC(=S)c1cncnc1N`, the T/C was 102 % of control (dose: 25.0 mg/kg/injection, schedule: Q04DX003 (ip), vehicle: saline with Tween-80); 99 % of control (dose: 50.0 mg/kg/injection, schedule: Q04DX003 (ip), vehicle: saline with Tween-80); 104 % of control (dose: 100.0 mg/kg/injection, schedule: Q04DX003 (ip), vehicle: saline with Tween-80).

Turning to `S=C(N/N=C/c1ccncc1)Nc1ccccc1`, the T/C is 99 % of control under setting [5]; 100 % of control (dose: 120.0 mg/kg/injection, schedule: Q01DX005 (ip), vehicle: Klucel (hydroxypropylcellulose) (HPC)); 91 % of control (dose: 240.0 mg/kg/injection, schedule: Q01DX005 (ip), vehicle: Klucel (hydroxypropylcellulose) (HPC)).

On to `O=C(c1ccccc1)C(c1ccccc1)n1nc2c(c1-c1ccccc1)CCCC2` (stereo not given), for which the T/C is, setting by setting: under setting [6], 98 % of control; under setting [7], 91 % of control; under setting [8], 97 % of control.

In the case of `CCOc1ccc(CC)cc1Cc1ccc(OC)cc1`, the T/C is 108 % of control (dose: 50.0 mg/kg/injection, schedule: Q01DX005 (ip), vehicle: saline with Tween-80); 117 % of control (dose: 100.0 mg/kg/injection, schedule: Q01DX005 (ip), vehicle: saline with Tween-80); 113 % of control (dose: 200.0 mg/kg/injection, schedule: Q01DX005 (ip), vehicle: saline with Tween-80).

Consider `O=C1C(=C(O)c2ccccc2)C(=O)c2ccccc21`, for which the T/C is 99 % of control (dose: 15.0 mg/kg/injection, schedule: Q01DX005 (ip), vehicle: saline with Tween-80); 105 % of control (dose: 30.0 mg/kg/injection, schedule: Q01DX005 (ip), vehicle: saline with Tween-80); 105 % of control and 109 % of control (dose: 60.0 mg/kg/injection, schedule: Q01DX005 (ip), vehicle: saline with Tween-80); 104 % of control (dose: 120.0 mg/kg/injection, schedule: Q01DX005 (ip), vehicle: saline with Tween-80).

On to `CC(NC(=O)C(c1ccccc1)c1ccccc1)C(=O)O` (stereo not given), for which the T/C reads like this: under setting [2], 97 % of control; under setting [3], 107 % of control; under setting [4], 97 % of control.

For the compound `OCCc1nccnn1`, the T/C is, setting by setting: (dose: 12.5 mg/kg/injection, schedule: Q04DX003 (ip), vehicle: saline) 104 % of control; (dose: 25.0 mg/kg/injection, schedule: Q04DX003 (ip), vehicle: saline) 107 % of control; (dose: 50.0 mg/kg/injection, schedule: Q04DX003 (ip), vehicle: saline) 104 % of control; (dose: 200.0 mg/kg/injection, schedule: Q04DX003 (ip), vehicle: saline) 87 % of control; (dose: 400.0 mg/kg/injection, schedule: Q04DX003 (ip), vehicle: saline) 86 % of control.

As to `Cn1c(=O)c2nnn(-c3ccccc3)c2n(C)c1=O`, the T/C (dose: 45.0 mg/kg/injection, schedule: Q01DX009 (ip), vehicle: saline with Tween-80) is 100 % of control; the T/C (dose: 90.0 mg/kg/injection, schedule: Q01DX009 (ip), vehicle: saline with Tween-80) is 115 % of control; the T/C (dose: 180.0 mg/kg/injection, schedule: Q01DX009 (ip), vehicle: saline with Tween-80) is 100 % of control.

With `NC(=O)N/N=C1\CCCCC12CCCC2`, the T/C (dose: 100.0 mg/kg/injection, schedule: Q04DX002 (ip), vehicle: saline with Tween-80) was 102 % of control; the T/C (dose: 200.0 mg/kg/injection, schedule: Q04DX002 (ip), vehicle: saline with Tween-80) was 102 % of control; the T/C (dose: 400.0 mg/kg/injection, schedule: Q04DX002 (ip), vehicle: saline with Tween-80) was 100 % of control.

In the case of `O=Cc1ccc(C(Cl)(Cl)Cl)cc1`, the T/C was 123 % of control under setting [1]; 109 % of control (dose: 264.0 mg/kg/injection, schedule: Q04DX003 (ip), vehicle: saline with Tween-80); 159 % of control (dose: 400.0 mg/kg/injection, schedule: Q04DX003 (ip), vehicle: saline with Tween-80).

As for `CCOC(=O)C(/N=N\c1nn[nH]n1)/N=N/c1ncn[nH]1` (stereo not given), the T/C runs as follows: (dose: 100.0 mg/kg/injection, schedule: Q01DX001 (ip), vehicle: suspension in saline) 102 % of control; (dose: 200.0 mg/kg/injection, schedule: Q01DX001 (ip), vehicle: suspension in saline) 102 % of control; (dose: 400.0 mg/kg/injection, schedule: Q01DX001 (ip), vehicle: suspension in saline) 107 % of control.

As to `Cc1ncc(CO)n1Cc1ccc(Cl)cc1`, the T/C reads like this: under setting [6], 104 % of control; under setting [7], 99 % of control; under setting [8], 94 % of control.

As for `COC1=C(C)[C@@H]2CC(=O)O[C@@H]3C[C@H]4CCCC[C@]4(C)[C@@H](C1=O)[C@@]32C`, the T/C reads like this: under setting [2], 95 % of control; under setting [3], 92 % of control; under setting [4], 93 % of control.

As for `NC(=S)c1ccc2ccccc2c1`, the T/C is 100 % of control under setting [2], 100 % of control under setting [3] and 100 % of control under setting [4].

With `Cc1nc(N=C(N)N)nc2ccc3ccccc3c12`, the T/C is, setting by setting: (dose: 3.13 mg/kg/injection, schedule: Q01DX009 (ip), vehicle: Klucel (hydroxypropylcellulose) (HPC)) 95 % of control; (dose: 6.25 mg/kg/injection, schedule: Q01DX009 (ip), vehicle: Klucel (hydroxypropylcellulose) (HPC)) 104 % of control; (dose: 12.5 mg/kg/injection, schedule: Q01DX009 (ip), vehicle: Klucel (hydroxypropylcellulose) (HPC)) 93 % of control.

In the case of `O=C(O)c1ncn2c(=O)n(CCCl)nnc12`, under setting [5], the T/C is 118 % of control.

For `c1cc(-c2nc3ccc(-c4nc5ccc(C6=NCCN6)cc5[nH]4)cc3[nH]2)ccc1C1=NCCN1`, the T/C (dose: 6.25 mg/kg/injection, schedule: Q01DX005 (ip), vehicle: Klucel (hydroxypropylcellulose) (HPC)) is 100 % of control; the T/C (dose: 12.5 mg/kg/injection, schedule: Q01DX005 (ip), vehicle: Klucel (hydroxypropylcellulose) (HPC)) is 98 % of control; the T/C under setting [2] was 88 % of control.

Consider `Cc1ccc(C(=O)CC2=NC3NN(c4ccccc4)C(=O)C3=C2CC(=O)c2ccc(C)cc2)cc1` (stereo not given), for which the T/C is 94 % of control (dose: 60.0 mg/kg/injection, schedule: Q01DX005 (ip), vehicle: suspension in saline); 98 % of control (dose: 120.0 mg/kg/injection, schedule: Q01DX005 (ip), vehicle: suspension in saline); 102 % of control (dose: 240.0 mg/kg/injection, schedule: Q01DX005 (ip), vehicle: suspension in saline).
